Experimental data from patent US20160375006A1, “USES OF PARALOG-SELECTIVE INHIBITORS OF GSK3 KINASES” (priority 2012, published 2016).

How the values were obtained:
TAOK2 = TAOK2 (Homo sapiens, UniProt Q9UL54)
Experimental: (§1) This was completed utilizing one of two assays depending on the kinase being examined.
(§2) A solution of IMAP binding reagent (IMAP Screening Express kit; Molecular Devices) (60 μL) was added to each well and incubated for 30 minutes.
(§3) A solution of termination buffer (QuickScout Screening assist MSA; Carna Biosciences) (60 μL) was added to each well. The entire reaction mixture was then applied to a LabChip3000 system (Caliper Life Science) and the product and substrate peptide peaks were separated and quantified.

EGFR(L858R) = EGFR(L858R) (Homo sapiens, UniProt P00533, L858R)
Experimental: as §1, §2, §3
(§4) The assay utilized was identical to that of the single point inhibitory activity determination (MSA) but run in dose response. […] A solution of termination buffer (QuickScout Screening assist MSA; Carna Biosciences) (60 μL) was added to each well. The entire reaction mixture was then applied to a LabChip3000 system (Caliper Life Science) and the product and substrate peptide peaks were separated and quantified.

KIT(D816V) = KIT(D816V) (Homo sapiens, UniProt P10721, D816V)
Experimental: as §1, §2, §3, §4

IRAK1 = IRAK1 (Homo sapiens, UniProt P51617)
Experimental: as §1, §2, §3, §4

PKACγ = PKACγ (Homo sapiens, UniProt P22612)
Experimental: as §1, §2, §3, §4

PLK2 = PLK2 (Homo sapiens, UniProt Q9NYY3)
Experimental: as §1, §2, §3, §4

CK1ε = CK1ε (Homo sapiens, UniProt P49674)
Experimental: as §1, §2, §3

HIPK2 = HIPK2 (Homo sapiens, UniProt Q9H2X6)
Experimental: as §1, §2, §3, §4

ALK(F1174L) = ALK(F1174L) (Homo sapiens, UniProt Q9UM73, F1174L)
Experimental: as §1, §2, §3

BMX = BMX (Homo sapiens, UniProt P51813)
Experimental: as §1, §2, §3, §4

JAK2 = JAK2 (Homo sapiens, UniProt O60674)
Experimental: as §1, §2, §3, §4

CaMK1α = CaMK1α (Homo sapiens, UniProt Q14012)
Experimental: as §1, §2, §3, §4

TIE2 = TIE2 (Homo sapiens, UniProt Q02763)
Experimental: as §1, §2, §3, §4

EML4-ALK = EML4-ALK (Homo sapiens, UniProt Q9UM73)
Experimental: as §1, §2, §3, §4

Erk1 = Erk1 (Homo sapiens, UniProt P27361)
Experimental: as §1, §2, §3

MSSK1 = MSSK1 (Homo sapiens, UniProt Q9UPE1)
Experimental: as §1, §2, §3, §4

PKACβ = PKACβ (Homo sapiens, UniProt P22694)
Experimental: as §1, §2, §3, §4

MRCKβ = MRCKβ (Homo sapiens, UniProt Q9Y5S2)
Experimental: as §1, §2, §3, §4

EGFR = EGFR (Homo sapiens, UniProt P00533)
Experimental: as §1, §2, §3, §4

MET = MET (Homo sapiens, UniProt P08581)
Experimental: as §2, §3, §4

PDGFRα(V561D) = PDGFRα(V561D) (Homo sapiens, UniProt P16234, V561D)
Experimental: as §1, §2, §3, §4

MAP2K5_Cascade = MAP2K5_Cascade (Homo sapiens, UniProt Q13163)
Experimental: as §2, §3, §4

AurC = AurC (Homo sapiens, UniProt Q9UQB9)
Experimental: as §1, §2, §3

BRAF(V600E)_Cascade = BRAF(V600E)_Cascade (Homo sapiens, UniProt P15056, V600E)
Experimental: as §1, §2, §3

MAP2K2_Cascade = MAP2K2_Cascade (Homo sapiens, UniProt P36507)
Experimental: as §1, §2, §3

PKCγ = PKCγ (Homo sapiens, UniProt P05129)
Experimental: as §1, §2, §3, §4

KDR = KDR (Homo sapiens, UniProt P35968)
Experimental: as §1, §2, §3, §4

NEK6 = NEK6 (Homo sapiens, UniProt Q9HC98)
Experimental: as §1, §2, §3

MNK2 = MNK2 (Homo sapiens, UniProt Q9HBH9)
Experimental: as §1, §2, §3

PKD3 = PKD3 (Homo sapiens, UniProt O94806)
Experimental: as §1, §2, §3

MINK = MINK (Homo sapiens, UniProt Q8N4C8)
Experimental: as §1, §2, §3, §4

NDR2 = NDR2 (Homo sapiens, UniProt Q9Y2H1)
Experimental: as §1, §2, §3, §4

PYK2 = PYK2 (Homo sapiens, UniProt Q14289)
Experimental: as §1, §2, §3

EEF2K = EEF2K (Homo sapiens, UniProt O00418)
Experimental: as §1, §2, §3

RSK2 = RSK2 (Homo sapiens, UniProt P51812)
Experimental: as §1, §2, §3, §4

NuaK2 = NuaK2 (Homo sapiens, UniProt Q9H093)
Experimental: as §1, §2, §3, §4

TSSK3 = TSSK3 (Homo sapiens, UniProt Q96PN8)
Experimental: as §1, §2, §3, §4

MAP3K5_Cascade = MAP3K5_Cascade (Homo sapiens, UniProt Q99683)
Experimental: as §1, §2, §3, §4

MSK2 = MSK2 (Homo sapiens, UniProt O75676)
Experimental: as §1, §2, §3, §4

RET = RET (Homo sapiens, UniProt P07949)
RET, sequence (P07949 29-1114): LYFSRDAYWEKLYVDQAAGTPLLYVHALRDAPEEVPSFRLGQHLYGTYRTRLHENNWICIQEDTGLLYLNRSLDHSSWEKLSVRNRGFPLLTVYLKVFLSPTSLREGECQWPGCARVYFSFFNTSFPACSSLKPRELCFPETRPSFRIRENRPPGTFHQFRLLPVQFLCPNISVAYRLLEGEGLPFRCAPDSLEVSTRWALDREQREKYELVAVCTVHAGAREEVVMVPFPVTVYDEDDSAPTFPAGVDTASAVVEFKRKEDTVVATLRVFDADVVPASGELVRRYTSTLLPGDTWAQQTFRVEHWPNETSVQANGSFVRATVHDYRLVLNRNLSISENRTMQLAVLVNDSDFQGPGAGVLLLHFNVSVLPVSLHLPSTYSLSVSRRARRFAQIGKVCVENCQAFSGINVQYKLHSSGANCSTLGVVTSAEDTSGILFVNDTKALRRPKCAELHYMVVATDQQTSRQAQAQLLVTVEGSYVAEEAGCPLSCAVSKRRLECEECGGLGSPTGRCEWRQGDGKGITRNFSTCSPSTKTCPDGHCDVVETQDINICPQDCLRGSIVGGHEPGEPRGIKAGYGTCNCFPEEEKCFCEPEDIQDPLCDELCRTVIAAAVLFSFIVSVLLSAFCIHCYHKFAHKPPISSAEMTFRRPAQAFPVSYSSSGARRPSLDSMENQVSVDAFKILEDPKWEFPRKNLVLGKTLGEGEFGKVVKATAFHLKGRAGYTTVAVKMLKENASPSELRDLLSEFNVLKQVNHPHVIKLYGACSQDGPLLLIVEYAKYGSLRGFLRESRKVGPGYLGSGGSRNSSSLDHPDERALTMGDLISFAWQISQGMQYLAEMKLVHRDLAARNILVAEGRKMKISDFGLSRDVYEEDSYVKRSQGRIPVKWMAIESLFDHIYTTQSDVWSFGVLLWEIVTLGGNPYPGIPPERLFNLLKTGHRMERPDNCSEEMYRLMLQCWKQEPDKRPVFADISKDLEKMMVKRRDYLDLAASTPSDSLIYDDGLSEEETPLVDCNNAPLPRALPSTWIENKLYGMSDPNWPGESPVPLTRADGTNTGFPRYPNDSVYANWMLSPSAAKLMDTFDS
Experimental: as §1, §2, §3

TSSK3, sequence (Q96PN8 whole entry): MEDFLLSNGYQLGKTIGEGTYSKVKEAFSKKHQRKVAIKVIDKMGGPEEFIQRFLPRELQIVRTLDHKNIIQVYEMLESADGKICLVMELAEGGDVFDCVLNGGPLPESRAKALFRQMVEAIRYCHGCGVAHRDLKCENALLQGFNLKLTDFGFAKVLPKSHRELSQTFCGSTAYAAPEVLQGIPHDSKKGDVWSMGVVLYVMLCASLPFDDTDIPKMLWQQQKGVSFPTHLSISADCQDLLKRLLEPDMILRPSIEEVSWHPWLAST
CK1ε, sequence (P49674 whole entry): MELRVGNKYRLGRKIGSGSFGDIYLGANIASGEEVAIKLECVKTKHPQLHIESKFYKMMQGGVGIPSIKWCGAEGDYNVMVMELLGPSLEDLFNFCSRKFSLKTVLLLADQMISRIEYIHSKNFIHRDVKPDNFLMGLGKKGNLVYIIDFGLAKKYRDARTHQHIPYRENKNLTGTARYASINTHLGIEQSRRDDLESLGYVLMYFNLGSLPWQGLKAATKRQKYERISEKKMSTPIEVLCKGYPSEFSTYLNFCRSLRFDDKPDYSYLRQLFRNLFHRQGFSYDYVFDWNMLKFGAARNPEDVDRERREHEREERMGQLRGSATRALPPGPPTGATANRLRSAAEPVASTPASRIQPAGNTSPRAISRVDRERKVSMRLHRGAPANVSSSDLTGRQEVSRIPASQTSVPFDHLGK
NDR2, sequence (Q9Y2H1 whole entry): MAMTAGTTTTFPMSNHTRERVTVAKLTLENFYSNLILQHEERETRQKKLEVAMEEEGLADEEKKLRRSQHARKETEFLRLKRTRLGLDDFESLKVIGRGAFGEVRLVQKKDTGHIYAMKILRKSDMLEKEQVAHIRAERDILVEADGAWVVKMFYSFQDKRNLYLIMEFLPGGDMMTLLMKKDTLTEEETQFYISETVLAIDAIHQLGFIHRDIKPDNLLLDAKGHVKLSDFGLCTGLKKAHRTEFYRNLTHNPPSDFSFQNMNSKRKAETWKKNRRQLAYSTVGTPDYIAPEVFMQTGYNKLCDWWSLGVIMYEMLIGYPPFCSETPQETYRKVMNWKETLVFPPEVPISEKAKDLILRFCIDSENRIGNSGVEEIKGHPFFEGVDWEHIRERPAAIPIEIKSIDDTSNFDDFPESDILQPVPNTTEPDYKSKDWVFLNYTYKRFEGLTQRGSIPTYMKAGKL
EEF2K, sequence (O00418 whole entry): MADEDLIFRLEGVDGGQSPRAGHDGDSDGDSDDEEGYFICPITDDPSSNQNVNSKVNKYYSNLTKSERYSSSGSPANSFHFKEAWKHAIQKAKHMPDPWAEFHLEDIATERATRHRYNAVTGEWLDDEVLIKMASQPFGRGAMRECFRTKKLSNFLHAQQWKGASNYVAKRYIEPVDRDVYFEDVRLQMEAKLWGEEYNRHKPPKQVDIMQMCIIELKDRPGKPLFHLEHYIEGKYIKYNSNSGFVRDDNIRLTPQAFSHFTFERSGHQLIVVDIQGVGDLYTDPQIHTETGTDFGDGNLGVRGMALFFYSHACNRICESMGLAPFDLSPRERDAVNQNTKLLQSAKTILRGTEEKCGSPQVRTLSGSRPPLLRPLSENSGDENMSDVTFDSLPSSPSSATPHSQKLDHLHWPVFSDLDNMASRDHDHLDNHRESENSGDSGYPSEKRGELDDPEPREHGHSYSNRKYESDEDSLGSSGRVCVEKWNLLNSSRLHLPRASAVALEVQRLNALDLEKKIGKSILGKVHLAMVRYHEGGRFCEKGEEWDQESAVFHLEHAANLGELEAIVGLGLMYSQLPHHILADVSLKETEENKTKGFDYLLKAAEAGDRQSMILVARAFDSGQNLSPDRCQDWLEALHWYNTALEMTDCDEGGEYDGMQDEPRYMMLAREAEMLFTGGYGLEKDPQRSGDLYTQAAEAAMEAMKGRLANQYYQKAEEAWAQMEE
NuaK2, sequence (Q9H093 whole entry): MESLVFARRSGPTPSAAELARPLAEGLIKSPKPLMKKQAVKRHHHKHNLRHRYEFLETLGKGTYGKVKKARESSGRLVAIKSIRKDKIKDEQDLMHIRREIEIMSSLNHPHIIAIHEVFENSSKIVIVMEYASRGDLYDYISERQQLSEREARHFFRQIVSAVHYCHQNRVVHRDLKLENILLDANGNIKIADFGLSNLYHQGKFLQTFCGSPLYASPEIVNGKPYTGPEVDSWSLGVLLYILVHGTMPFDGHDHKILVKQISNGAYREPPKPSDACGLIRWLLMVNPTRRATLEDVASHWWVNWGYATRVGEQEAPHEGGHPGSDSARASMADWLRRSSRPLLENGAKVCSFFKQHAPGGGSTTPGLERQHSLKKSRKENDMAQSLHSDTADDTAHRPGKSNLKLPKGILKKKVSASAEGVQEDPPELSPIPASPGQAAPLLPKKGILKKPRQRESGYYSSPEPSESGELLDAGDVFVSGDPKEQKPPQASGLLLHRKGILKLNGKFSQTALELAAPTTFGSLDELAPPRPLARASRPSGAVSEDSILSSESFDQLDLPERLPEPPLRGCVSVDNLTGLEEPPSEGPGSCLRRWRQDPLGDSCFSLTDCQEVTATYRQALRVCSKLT
MNK2, sequence (Q9HBH9 whole entry): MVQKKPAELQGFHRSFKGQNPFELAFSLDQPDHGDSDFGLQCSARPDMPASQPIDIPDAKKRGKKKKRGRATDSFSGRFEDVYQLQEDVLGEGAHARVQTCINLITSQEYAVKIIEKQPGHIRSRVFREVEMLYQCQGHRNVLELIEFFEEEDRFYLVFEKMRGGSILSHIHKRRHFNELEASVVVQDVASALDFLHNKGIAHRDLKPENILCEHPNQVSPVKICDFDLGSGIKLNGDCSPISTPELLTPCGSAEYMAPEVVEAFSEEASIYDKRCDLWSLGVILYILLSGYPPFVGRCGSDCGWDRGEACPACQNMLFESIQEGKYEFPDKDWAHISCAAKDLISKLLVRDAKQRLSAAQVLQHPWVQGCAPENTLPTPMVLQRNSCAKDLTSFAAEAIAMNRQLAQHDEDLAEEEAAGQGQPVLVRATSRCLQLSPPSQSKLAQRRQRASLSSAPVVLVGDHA

SMILES: CC[C@@]1(c2ccccc2)C2=C(CC(C)(C)CC2=O)Nc2n[nH]cc21 [BRD0705]
- % Inhibition at 10 μM (TAOK2): −5.8%
- % Inhibition at 10 μM (EGFR(L858R)): −4.0%
- % Inhibition at 10 μM (KIT(D816V)): 3.5%
- % Inhibition at 10 μM (IRAK1): 3.1%
- % Inhibition at 10 μM (PKACγ): −3.6%
- % Inhibition at 10 μM (PLK2): 4.0%
- % Inhibition at 10 μM (CK1ε): −0.4%
- % Inhibition at 10 μM (HIPK2): −0.5%
- % Inhibition at 10 μM (ALK(F1174L)): 1.7%
- % Inhibition at 10 μM (BMX): 2.7%
- % Inhibition at 10 μM (JAK2): −0.5%
- % Inhibition at 10 μM (CaMK1α): −4.7%
- % Inhibition at 10 μM (TIE2): 0.3%
- % Inhibition at 10 μM (EML4-ALK): 3.4%
- % Inhibition at 10 μM (Erk1): −9.8%
- % Inhibition at 10 μM (MSSK1): −1.6%
- % Inhibition at 10 μM (PKACβ): −7.7%
- % Inhibition at 10 μM (MRCKβ): −9.1%
- % Inhibition at 10 μM (EGFR): 0.3%
- % Inhibition at 10 μM (MET): −2.4%
- % Inhibition at 10 μM (PDGFRα(V561D)): −3.7%
- % Inhibition at 10 μM (MAP2K5_Cascade): −2.3%
- % Inhibition at 10 μM (AurC): 7.3%
- % Inhibition at 10 μM (BRAF(V600E)_Cascade): 7.0%
- % Inhibition at 10 μM (MAP2K2_Cascade): 1.3%
- % Inhibition at 10 μM (PKCγ): −8.0%
- % Inhibition at 10 μM (KDR): −4.8%
- % Inhibition at 10 μM (NEK6): −5.7%
- % Inhibition at 10 μM (MNK2): −5.9%
- % Inhibition at 10 μM (PKD3): 3.9%
- % Inhibition at 10 μM (MINK): 2.4%
- % Inhibition at 10 μM (NDR2): −9.9%
- % Inhibition at 10 μM (PYK2): 3.5%
- % Inhibition at 10 μM (EEF2K): −6.4%
- % Inhibition at 10 μM (RSK2): 0.4%
- % Inhibition at 10 μM (NuaK2): −1.7%
- % Inhibition at 10 μM (TSSK3): 3.5%
- % Inhibition at 10 μM (MAP3K5_Cascade): 1.9%
- % Inhibition at 10 μM (MSK2): −2.5%
- % Inhibition at 10 μM (RET): −5.6%

SMILES: CC(C)(C)Cc1[nH]nc2c1[C@](C)(c1ccccc1)C1=C(CC(C)(C)CC1=O)N2 [BRD3731]
- % Inhibition 10 μM (TAOK2; 10 μM): 2.2%
- % Inhibition 10 μM (EGFR(L858R); 10 μM): −1.2%
- % Inhibition 10 μM (KIT(D816V); 10 μM): −1.7%
- % Inhibition 10 μM (IRAK1; 10 μM): 1.2%
- % Inhibition 10 μM (PKACγ; 10 μM): 6.5%
- % Inhibition 10 μM (PLK2; 10 μM): 8.5%
- % Inhibition 10 μM (CK1ε; 10 μM): 28.0%
- % Inhibition 10 μM (HIPK2; 10 μM): 3.2%
- % Inhibition 10 μM (ALK(F1174L); 10 μM): 0.2%
- % Inhibition 10 μM (BMX; 10 μM): −3.8%
- % Inhibition 10 μM (JAK2; 10 μM): 3.0%
- % Inhibition 10 μM (CaMK1α; 10 μM): 4.7%
- % Inhibition 10 μM (TIE2; 10 μM): 6.7%
- % Inhibition 10 μM (EML4-ALK; 10 μM): −7.2%
- % Inhibition 10 μM (Erk1; 10 μM): 3.4%
- % Inhibition 10 μM (MSSK1; 10 μM): 2.8%
- % Inhibition 10 μM (PKACβ; 10 μM): 9.3%
- % Inhibition 10 μM (MRCKβ; 10 μM): −0.7%
- % Inhibition 10 μM (EGFR; 10 μM): 10.0%
- % Inhibition 10 μM (MET; 10 μM): −0.8%
- % Inhibition 10 μM (PDGFRα(V561D); 10 μM): 6.6%
- % Inhibition 10 μM (MAP2K5_Cascade; 10 μM): 6.1%
- % Inhibition 10 μM (AurC; 10 μM): 4.9%
- % Inhibition 10 μM (BRAF(V600E)_Cascade; 10 μM): −5.2%
- % Inhibition 10 μM (MAP2K2_Cascade; 10 μM): −0.4%
- % Inhibition 10 μM (PKCγ; 10 μM): 5.0%
- % Inhibition 10 μM (KDR; 10 μM): 7.1%
- % Inhibition 10 μM (NEK6; 10 μM): 0.0%
- % Inhibition 10 μM (MNK2; 10 μM): −5.6%
- % Inhibition 10 μM (PKD3; 10 μM): 2.6%
- % Inhibition 10 μM (MINK; 10 μM): 2.2%
- % Inhibition 10 μM (NDR2; 10 μM): −3.2%
- % Inhibition 10 μM (PYK2; 10 μM): 5.3%
- % Inhibition 10 μM (EEF2K; 10 μM): 3.9%
- % Inhibition 10 μM (RSK2; 10 μM): 42.8%
- % Inhibition 10 μM (NuaK2; 10 μM): −2.8%
- % Inhibition 10 μM (TSSK3; 10 μM): 33.6%
- % Inhibition 10 μM (MAP3K5_Cascade; 10 μM): 0.4%
- % Inhibition 10 μM (MSK2; 10 μM): 12.6%
- % Inhibition 10 μM (RET; 10 μM): 3.0%
